Test results reported in ChEMBL document CHEMBL4138231 (Eur J Med Chem, 2018).
Calls of active or inactive are those of the source. The rule behind the calls is not given here.

Key:
Huh-7 = experiment: Antiproliferative activity against human HuH7 cells after 72 hrs by CCK8 assay; assay type: functional
MCF7 = experiment: Antiproliferative activity against human MCF7 cells after 72 hrs by CCK8 assay; assay type: functional
NCI-H1975 = experiment: Antiproliferative activity against human NCI-H1975 cells after 72 hrs by CCK8 assay; assay type: functional
[1] = target: Serine/threonine-protein kinase PLK2 (Homo sapiens, UniProt Q9NYY3); experiment: Inhibition human recombinant full length GST-tagged Plk2 expressed in baculovirus expression system after 1 hr by FRET-based Z'-Lyte assay
Sequence of Serine/threonine-protein kinase PLK2 (Q9NYY3 whole entry): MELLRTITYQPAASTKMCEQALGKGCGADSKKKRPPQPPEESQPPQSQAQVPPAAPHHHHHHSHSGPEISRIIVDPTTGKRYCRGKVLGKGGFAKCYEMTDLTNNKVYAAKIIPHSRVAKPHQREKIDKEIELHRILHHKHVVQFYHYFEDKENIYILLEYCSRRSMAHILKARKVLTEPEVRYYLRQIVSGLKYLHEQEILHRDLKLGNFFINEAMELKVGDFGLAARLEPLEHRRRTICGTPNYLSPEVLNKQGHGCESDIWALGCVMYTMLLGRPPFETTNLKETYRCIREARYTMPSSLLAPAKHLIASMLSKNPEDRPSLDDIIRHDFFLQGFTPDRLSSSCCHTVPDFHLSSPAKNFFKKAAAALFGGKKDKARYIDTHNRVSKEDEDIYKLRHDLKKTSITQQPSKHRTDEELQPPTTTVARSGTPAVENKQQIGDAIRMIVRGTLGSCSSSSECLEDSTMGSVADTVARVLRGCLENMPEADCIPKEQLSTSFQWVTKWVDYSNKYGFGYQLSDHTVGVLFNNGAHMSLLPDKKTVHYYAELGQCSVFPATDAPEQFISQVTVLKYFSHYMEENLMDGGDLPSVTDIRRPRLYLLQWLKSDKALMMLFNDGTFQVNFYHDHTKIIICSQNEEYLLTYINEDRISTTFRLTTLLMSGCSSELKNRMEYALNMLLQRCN

K562 = experiment: Antiproliferative activity against human K562 cells after 72 hrs by CCK8 assay; assay type: functional; conditions: K562, 72 h
HeLa = experiment: Antiproliferative activity against human HeLa cells after 72 hrs by CCK8 assay; assay type: functional
A549 = experiment: Antiproliferative activity against human A549 cells after 72 hrs by CCK8 assay; assay type: functional
[2] = target: Serine/threonine-protein kinase PLK3 (Homo sapiens, UniProt Q9H4B4); experiment: Inhibition human recombinant GST-tagged Plk3 catalytic domain (58 to 340 residues) expressed in baculovirus expression system after 1 hr by FRET-based Z'-Lyte assay
Sequence of Serine/threonine-protein kinase PLK3 (Q9H4B4 whole entry, the tested form may be a part): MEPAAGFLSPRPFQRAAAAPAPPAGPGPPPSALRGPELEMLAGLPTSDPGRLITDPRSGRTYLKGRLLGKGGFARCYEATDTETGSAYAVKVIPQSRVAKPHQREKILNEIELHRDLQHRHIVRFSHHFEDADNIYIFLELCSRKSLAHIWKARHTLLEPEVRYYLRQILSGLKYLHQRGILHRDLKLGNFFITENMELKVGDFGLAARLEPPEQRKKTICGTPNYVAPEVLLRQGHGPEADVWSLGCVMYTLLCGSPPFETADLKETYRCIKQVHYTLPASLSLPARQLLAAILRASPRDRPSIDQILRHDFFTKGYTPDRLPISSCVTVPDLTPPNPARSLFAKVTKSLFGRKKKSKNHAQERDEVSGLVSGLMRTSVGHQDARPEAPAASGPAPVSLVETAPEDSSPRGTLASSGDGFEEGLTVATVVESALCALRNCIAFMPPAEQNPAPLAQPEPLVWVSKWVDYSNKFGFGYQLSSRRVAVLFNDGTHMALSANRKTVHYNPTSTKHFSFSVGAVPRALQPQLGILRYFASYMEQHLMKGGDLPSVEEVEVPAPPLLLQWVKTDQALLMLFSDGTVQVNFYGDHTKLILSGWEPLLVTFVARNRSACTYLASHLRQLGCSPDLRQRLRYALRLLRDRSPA

Row | SMILES | GI50 (Huh-7; Huh-7, 72 h) | GI50 (MCF7; MCF7, 72 h) | GI50 (NCI-H1975; NCI-H1975, 72 h) | IC50 [1] | GI50 (K562) | GI50 (HeLa) | GI50 (A549; A549, 72 h) | IC50 [2] | GI50 (MCF7) | GI50 (A549) | GI50 (Huh-7) | GI50 (NCI-H1975)
1 | CCNC(=O)c1ccc2c(ccn2-c2ncc3c(n2)N(C2CCCC2)[C@H](CC)C(=O)N3C)c1 | 0.596 µM | 0.784 µM | 0.882 µM | 0.00488 µM | 0.428 µM | 0.418 µM | 1.12 µM | – | – | – | – | –
2 | CCC1C(=O)N(C)c2cnc(-n3ccc4cc(C(=O)NC)ccc43)nc2N1c1ccn(C)n1 (racemic) | 13.2 µM | 35.4 µM | 35.7 µM | 0.218 µM | 13.3 µM | 6.33 µM | 43.1 µM | > 10 µM | – | – | – | –
3 | CCCCNS(=O)(=O)c1ccc(Nc2ncc3c(n2)N(C2CCCC2)[C@H](CC)C(=O)N3C)cc1 | 0.225 µM | 0.459 µM | 1.61 µM | 0.0199 µM | 0.412 µM | 0.451 µM | 0.477 µM | – | – | – | – | –
4 | CC[C@@H]1C(=O)N(C)c2cnc(Nc3ccc(S(=O)(=O)NC4CCCC4)cc3)nc2N1C1CCCC1 | 0.389 µM | 0.688 µM | 1.71 µM | 0.0239 µM | 0.872 µM | 0.609 µM | 1.15 µM | – | – | – | – | –
5 | CC[C@@H]1C(=O)N(C)c2cnc(-n3ccc4cc(F)ccc43)nc2N1C1CCCC1 | 16 µM | – | 46.5 µM | 0.969 µM | 21.2 µM | inactive | – | > 20 µM | inactive | inactive | – | –
6 | CC[C@@H]1C(=O)N(C)c2cnc(-n3ccc4cc(C(=O)NCC(C)C)ccc43)nc2N1C1CCCC1 | – | 0.953 µM | – | 0.0186 µM | 0.638 µM | 3.28 µM | 1.73 µM | – | – | – | inactive | inactive
7 | CCC1C(=O)N(C)c2cnc(-n3ccc4cc(C(=O)NC(C)C)ccc43)nc2N1c1ccn(C)n1 (racemic) | 6.74 µM | 8.42 µM | 12.2 µM | 0.124 µM | 8.91 µM | 4.35 µM | 22 µM | > 10 µM | – | – | – | –
8 | CC[C@@H]1C(=O)N(C)c2cnc(Nc3ccc(S(=O)(=O)NCCCO)cc3)nc2N1C1CCCC1 | 0.262 µM | 0.363 µM | 2.14 µM | 0.00816 µM | 0.331 µM | 0.357 µM | 0.437 µM | – | – | – | – | –
9 | CCC1C(=O)N(C)c2cnc(-n3ccc4cc(C(=O)NC5CCCC5)ccc43)nc2N1c1ccn(C)n1 (racemic) | – | – | – | 0.0909 µM | 31.3 µM | 27.4 µM | 39.5 µM | – | inactive | – | inactive | inactive
10 | CC[C@@H]1C(=O)N(C)c2cnc(-n3ccc4cc(C(=O)NC(C)C)ccc43)nc2N1C1CCCC1 | 1.66 µM | 1.67 µM | 1.84 µM | 0.0174 µM | 0.786 µM | 0.292 µM | 1.78 µM | – | – | – | – | –
11 | CCCNC(=O)c1ccc2c(ccn2-c2ncc3c(n2)N(c2ccn(C)n2)C(CC)C(=O)N3C)c1 (racemic) | 7.28 µM | 6.42 µM | 11 µM | 0.207 µM | 8.27 µM | 6.16 µM | – | > 10 µM | – | inactive | – | –
12 | CC[C@@H]1C(=O)N(C)c2cnc(-n3ccc4cc(C(=O)NC)ccc43)nc2N1C1CCCC1 | 0.842 µM | 1 µM | 1.37 µM | 0.0086 µM | 0.705 µM | 0.768 µM | 2.2 µM | – | – | – | – | –
13 | CCCNC(=O)c1ccc2c(ccn2-c2ncc3c(n2)N(C2CCCC2)[C@H](CC)C(=O)N3C)c1 | 0.689 µM | 0.592 µM | 0.786 µM | 0.0114 µM | 0.395 µM | 0.238 µM | 1.64 µM | – | – | – | – | –
14 | CC[C@@H]1C(=O)N(C)c2cnc(Nc3ccc(S(=O)(=O)Nc4ccccc4)cc3)nc2N1C1CCCC1 | 2.79 µM | 5.43 µM | 6 µM | 0.0544 µM | 4.18 µM | 5.14 µM | 4.15 µM | – | – | – | – | –
15 | CCCCNC(=O)c1ccc2c(ccn2-c2ncc3c(n2)N(c2ccn(C)n2)C(CC)C(=O)N3C)c1 (racemic) | 8.67 µM | 8.99 µM | 12 µM | 0.159 µM | 14.1 µM | 4.26 µM | 37.3 µM | > 10 µM | – | – | – | –
16 | CCC1C(=O)N(C)c2cnc(Nc3ccc(S(=O)(=O)NCC(C)C)cc3)nc2N1c1ccn(C)n1 (racemic) | 8.52 µM | 8.35 µM | 15 µM | 0.311 µM | 7.3 µM | 5.31 µM | 31.6 µM | – | – | – | – | –
17 | CC[C@@H]1C(=O)N(C)c2cnc(Nc3ccc(C(=O)NC4CCN(C)CC4)cc3OC)nc2N1C1CCCC1 [BI-2536] | 0.028 µM | 0.067 µM | 0.23 µM | – | 0.068 µM | 0.034 µM | 0.057 µM | – | – | – | – | –
